# Reference: ChEMBL document CHEMBL1201862, “PubChem BioAssay data set” (2004)
# Where “and” joins values, the source holds several entries; their conditions need not be identical. Identical values can stand only once. Calls of active or inactive are those of the source.
# What was measured:
# Galanin receptor type 3 = biological target: T1, Galanin receptor type 3 (Homo sapiens, UniProt O60755); assay: Fluorescence-based cell-based primary high throughput dose response assay to identify antagonists of the Galanin Receptor 3 (GalR3).; format: functional
# T1 sequence (O60755 whole entry): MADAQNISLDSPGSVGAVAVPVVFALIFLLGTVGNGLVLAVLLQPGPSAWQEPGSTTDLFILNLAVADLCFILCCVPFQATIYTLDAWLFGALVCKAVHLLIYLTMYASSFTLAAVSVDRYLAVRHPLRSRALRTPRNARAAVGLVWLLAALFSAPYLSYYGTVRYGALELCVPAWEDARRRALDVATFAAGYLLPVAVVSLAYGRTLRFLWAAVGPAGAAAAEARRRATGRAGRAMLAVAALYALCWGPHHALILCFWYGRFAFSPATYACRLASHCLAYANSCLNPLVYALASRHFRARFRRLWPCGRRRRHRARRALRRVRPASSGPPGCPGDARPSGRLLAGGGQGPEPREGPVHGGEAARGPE
# cells [1] = format: functional, cell-based; details: HEK-CNG
# H4 = assay: Luminescence Cell-Based Dose Response HTS to Identify Activators of 5'UTR Stem-Loop Driven Prion Protein mRNA Translation in H4 Neuroglioblastoma Cells. [Related pubchem assays: 1829 (Project Summary), 1814 (Primary HTS)]; format: functional; details: Homo sapiens
# [2] = biological target: T2, Nuclear receptor subfamily 0 group B member 1 (Homo sapiens, UniProt P51843); format: functional, cell-based;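 also: HEK293T cells transfected with SF-1 and DAX-1 plus StAR promoter luciferase reporter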
# T2 sequence (P51843 whole entry): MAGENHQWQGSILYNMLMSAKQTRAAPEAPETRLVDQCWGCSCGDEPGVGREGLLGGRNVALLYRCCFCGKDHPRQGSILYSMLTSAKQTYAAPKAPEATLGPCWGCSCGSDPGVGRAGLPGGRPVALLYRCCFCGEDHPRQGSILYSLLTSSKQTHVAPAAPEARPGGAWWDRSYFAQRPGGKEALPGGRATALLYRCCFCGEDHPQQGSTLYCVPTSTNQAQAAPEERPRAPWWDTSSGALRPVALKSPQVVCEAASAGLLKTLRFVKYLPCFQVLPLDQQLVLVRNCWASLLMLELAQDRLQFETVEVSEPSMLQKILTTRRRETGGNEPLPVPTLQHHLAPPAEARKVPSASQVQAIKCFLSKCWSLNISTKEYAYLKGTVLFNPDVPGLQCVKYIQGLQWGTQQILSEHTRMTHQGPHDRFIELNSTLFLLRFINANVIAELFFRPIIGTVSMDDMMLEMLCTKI
# [3] = Luminescence Cell-Based Dose Response HTS to Identify Activators of Luciferase Translation or Activity in H4 […] Cells. [Related pubchem assays: 1829 (Project Summary), 1814 (Primary HTS)]; format: functional
# Protein skinhead-1 = biological target: T3, Protein skinhead-1 (Caenorhabditis elegans, UniProt P34707); format: functional
# T3 sequence (P34707 whole entry): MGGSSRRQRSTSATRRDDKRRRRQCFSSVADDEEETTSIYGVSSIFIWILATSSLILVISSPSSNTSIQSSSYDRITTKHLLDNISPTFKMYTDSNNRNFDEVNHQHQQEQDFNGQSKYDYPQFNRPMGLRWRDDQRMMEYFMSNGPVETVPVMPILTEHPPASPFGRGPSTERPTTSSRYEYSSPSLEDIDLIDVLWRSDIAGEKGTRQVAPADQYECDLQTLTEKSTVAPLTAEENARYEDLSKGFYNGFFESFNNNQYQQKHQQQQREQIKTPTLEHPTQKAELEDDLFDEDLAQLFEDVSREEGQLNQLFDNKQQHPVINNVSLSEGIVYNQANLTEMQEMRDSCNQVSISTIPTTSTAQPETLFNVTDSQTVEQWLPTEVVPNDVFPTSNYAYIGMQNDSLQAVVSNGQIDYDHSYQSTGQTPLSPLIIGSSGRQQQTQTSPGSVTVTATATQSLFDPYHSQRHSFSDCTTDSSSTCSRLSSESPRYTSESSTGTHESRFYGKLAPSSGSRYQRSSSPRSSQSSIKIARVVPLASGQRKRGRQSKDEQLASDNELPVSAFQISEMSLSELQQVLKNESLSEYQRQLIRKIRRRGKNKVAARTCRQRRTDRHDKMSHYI
# [4] = Luminescence Cell-Based Dose Confirmation HTS to Identify Activators of 5'UTR Stem-Loop Driven Alpha-Synuclein mRNA Translation in H4 Neuroglioblastoma Cells. [Related pubchem assays: 1829 (Project Summary), 1814 (Primary HTS)]; format: functional
# cells [5] = format: functional, cell-based
# [6] = biological target: T4, DNA repair and recombination protein RAD54-like (Homo sapiens, UniProt Q92698); assay: inhibitors of human RAD54 branch migration, confirmation, biochemical, fluorescence, cherry-picked samples, dose series (AID 651657); format: functional
# T4 sequence (Q92698 whole entry): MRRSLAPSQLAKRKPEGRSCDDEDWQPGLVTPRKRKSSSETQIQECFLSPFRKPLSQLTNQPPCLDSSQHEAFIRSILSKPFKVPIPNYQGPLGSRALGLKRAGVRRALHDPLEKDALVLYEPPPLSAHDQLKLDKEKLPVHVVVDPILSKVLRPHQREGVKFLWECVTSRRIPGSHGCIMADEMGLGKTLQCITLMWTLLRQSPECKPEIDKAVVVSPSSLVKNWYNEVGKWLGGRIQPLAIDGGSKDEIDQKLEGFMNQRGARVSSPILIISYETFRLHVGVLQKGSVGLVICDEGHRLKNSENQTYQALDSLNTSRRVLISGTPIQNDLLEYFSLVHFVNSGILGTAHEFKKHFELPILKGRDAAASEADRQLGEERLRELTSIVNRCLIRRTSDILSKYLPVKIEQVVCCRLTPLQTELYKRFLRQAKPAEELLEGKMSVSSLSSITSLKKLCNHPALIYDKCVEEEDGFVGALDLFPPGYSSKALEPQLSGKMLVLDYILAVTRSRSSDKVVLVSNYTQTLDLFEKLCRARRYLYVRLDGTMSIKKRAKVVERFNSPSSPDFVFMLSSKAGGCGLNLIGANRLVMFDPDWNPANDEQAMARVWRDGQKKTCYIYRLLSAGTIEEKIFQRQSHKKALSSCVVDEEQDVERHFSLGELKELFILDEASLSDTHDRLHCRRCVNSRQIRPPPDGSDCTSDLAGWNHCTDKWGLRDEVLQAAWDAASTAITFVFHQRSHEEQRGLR
# [7] = miR-122 activators in hepatoma reporter cells, dose response, cell-based, Huh7 psiCHECK-miR122, Renilla luciferase, cherry-picked (AID 651956); format: functional;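 also: huh7 hepatoma cells stably carrying a psiCHECK-2 miR-122 sensor plasmid; renilla luciferase signal reporting endogenous miR-122 activity after 48 h compound exposure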
# Beta-galactosidase = Beta-galactosidase (Escherichia coli, UniProt Q8VNN2); assay: Dose response counterscreen for EBI2 assay utilizing the enzyme, b-galactosidase.; format: functional
# Sequence of Beta-galactosidase (Q8VNN2 whole entry): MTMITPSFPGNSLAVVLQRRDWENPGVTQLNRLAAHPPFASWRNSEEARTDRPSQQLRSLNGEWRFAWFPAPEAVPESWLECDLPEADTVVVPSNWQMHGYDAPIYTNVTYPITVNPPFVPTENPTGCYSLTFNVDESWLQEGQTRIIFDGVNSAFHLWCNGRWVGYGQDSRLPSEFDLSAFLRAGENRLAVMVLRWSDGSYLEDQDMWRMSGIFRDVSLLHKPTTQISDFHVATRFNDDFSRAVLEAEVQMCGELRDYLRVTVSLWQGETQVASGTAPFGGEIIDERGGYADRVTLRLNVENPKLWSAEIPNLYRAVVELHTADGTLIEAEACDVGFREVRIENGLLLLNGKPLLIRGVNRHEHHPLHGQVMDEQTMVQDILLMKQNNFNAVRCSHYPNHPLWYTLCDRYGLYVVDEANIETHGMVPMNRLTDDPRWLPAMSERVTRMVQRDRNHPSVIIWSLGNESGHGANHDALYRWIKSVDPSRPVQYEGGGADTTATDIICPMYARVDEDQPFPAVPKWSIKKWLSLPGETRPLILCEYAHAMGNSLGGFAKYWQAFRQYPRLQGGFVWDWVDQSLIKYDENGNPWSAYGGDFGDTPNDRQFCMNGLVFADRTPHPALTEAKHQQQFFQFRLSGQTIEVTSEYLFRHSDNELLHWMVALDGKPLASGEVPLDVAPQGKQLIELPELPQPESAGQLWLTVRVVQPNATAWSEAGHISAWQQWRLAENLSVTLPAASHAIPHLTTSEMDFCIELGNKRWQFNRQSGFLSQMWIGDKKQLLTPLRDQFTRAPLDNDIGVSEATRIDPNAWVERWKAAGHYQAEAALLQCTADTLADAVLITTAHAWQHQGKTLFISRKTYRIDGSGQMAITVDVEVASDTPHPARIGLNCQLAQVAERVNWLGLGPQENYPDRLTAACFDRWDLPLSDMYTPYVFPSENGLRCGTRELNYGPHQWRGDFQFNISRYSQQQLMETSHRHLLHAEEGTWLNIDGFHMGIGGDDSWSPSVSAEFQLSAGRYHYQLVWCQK
# [8] = biological target: T5, Aryl hydrocarbon receptor (Homo sapiens, UniProt P35869); details: Potency;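 also: confirmatory quantitative high-throughput screen measuring activation of the AhR signaling pathway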
# T5 sequence (P35869 whole entry): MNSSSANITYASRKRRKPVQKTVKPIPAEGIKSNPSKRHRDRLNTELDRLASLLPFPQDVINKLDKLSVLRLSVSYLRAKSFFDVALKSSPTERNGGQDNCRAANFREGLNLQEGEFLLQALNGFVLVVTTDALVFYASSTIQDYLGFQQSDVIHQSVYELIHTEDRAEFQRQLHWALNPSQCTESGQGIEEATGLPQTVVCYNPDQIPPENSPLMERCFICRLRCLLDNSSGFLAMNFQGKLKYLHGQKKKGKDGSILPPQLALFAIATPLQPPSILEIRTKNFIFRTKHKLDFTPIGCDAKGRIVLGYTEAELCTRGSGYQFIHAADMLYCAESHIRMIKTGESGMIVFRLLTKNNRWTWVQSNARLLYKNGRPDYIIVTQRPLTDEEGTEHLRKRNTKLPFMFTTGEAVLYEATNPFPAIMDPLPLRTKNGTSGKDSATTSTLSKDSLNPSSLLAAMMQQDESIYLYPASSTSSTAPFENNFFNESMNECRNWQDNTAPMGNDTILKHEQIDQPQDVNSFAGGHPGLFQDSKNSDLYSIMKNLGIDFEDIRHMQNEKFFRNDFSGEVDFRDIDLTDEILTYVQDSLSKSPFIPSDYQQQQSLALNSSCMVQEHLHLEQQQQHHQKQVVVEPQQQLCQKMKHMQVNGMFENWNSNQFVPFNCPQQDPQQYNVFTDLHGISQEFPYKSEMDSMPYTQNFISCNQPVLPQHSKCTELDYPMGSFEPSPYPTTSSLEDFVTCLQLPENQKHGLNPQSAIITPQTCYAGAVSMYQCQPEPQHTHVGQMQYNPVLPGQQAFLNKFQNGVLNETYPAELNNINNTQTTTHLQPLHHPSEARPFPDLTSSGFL
# [9] = MC4R antagonists, dose response, counter-screen for LGR2 antagonist project, cell-based, plate reader, cherry pick (AID 743444); format: functional;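 also: transfected HEK 293 cells stimulated with alpha-MSH peptide; potency of inhibitors of the alpha-MSH evoked signal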
# [10] = LGR2 antagonists, dose response, cell-based, HEK293, CRE-luciferase reporter, cherry pick, set 2 (AID 743343); format: functional;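 also: transfected cells were stimulated with diluted bursicon conditioned medium after compound addition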
# [11] = HepG2 cell cytotoxicity, dose response, cytotoxicity control, plate reader, cherry-pick, antagonist series (AID 743416); format: functional, cell-based
# [12] = A549 cell cytotoxicity, dose response, cytotoxicity control, plate reader, cherry-pick, antagonist series (AID 743412); format: functional, cell-based
# Protein Wnt-3a = Protein Wnt-3a (Mus musculus, UniProt P27467); assay: Wnt3a-driven reporter signaling inhibition, dose response, selectivity assay for Gli-SUFU antagonist project, Wnt-LIGHT cells, luminescence (AID 651570); format: functional; details: read-out: IC50_Mean;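 also: Wnt-LIGHT reporter cells stimulated with conditioned medium from Wnt3a-producing cells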
# Sequence of Protein Wnt-3a (P27467 whole entry): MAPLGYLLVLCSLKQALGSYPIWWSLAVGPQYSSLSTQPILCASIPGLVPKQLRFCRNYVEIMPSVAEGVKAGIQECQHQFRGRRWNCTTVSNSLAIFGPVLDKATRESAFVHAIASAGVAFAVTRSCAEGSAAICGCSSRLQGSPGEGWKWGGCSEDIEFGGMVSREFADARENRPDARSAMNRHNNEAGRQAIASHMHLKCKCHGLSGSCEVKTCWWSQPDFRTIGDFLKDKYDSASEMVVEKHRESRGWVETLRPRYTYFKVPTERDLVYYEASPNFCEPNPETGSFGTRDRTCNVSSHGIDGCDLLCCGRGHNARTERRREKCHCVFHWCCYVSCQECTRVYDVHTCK
# [13] = NIH-3T3 fibroblast cytotoxicity, dose response, cytotoxicity control, cell-based, fluorescence, Alamar Blue, secondary assay (AID 2327); format: functional;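 also: NIH-3T3 mouse fibroblasts cultured with fluconazole at 8 µg/mL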
# INS1 = assay: beta cell apoptosis inhibitors, cytokine rescue, dose response, luminescence, retest (AID 449756); format: functional, cell-based; details: Rattus norvegicus;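 also: cell death triggered by IL-1 beta plus TNF-alpha plus IFN-gamma mixture; protective hits raise ATP signal compared with cytokine alone wells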
# [14] = C. albicans growth with fluconazole, confirmation, fluorescence, retest (AID 2467); format: functional, cell-based
# Cytochrome P450 3A4 = Cytochrome P450 3A4 (Homo sapiens, UniProt P08684); details: Potency;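 also: confirmatory qHTS run detecting inhibitors and substrates of CYP3A4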
# Sequence of Cytochrome P450 3A4 (P08684 whole entry): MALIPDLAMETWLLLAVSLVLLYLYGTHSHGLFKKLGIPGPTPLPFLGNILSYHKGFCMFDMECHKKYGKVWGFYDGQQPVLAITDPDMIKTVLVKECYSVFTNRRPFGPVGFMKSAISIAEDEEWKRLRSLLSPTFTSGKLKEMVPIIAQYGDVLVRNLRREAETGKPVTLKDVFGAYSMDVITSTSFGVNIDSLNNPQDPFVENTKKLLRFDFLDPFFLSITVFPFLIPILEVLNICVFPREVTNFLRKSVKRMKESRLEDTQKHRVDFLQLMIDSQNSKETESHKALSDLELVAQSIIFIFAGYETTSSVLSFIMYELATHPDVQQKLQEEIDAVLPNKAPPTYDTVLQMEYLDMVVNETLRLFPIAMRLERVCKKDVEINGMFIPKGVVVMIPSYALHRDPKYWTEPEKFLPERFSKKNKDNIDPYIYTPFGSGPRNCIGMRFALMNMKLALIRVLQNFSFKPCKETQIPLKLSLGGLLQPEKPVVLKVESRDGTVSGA
# [15] = HeLa cell cytotoxicity, dose response, cytotoxicity control for MgcRacGAP inhibitor project (AID 624300); format: functional
# [16] = biological target: T6, Rac GTPase-activating protein 1 (Homo sapiens, UniProt Q9H0H5); assay: MgcRacGAP GTPase-activating activity inhibitors, confirmation, biochemical, ADP Hunter fluorescence, primary and confirmatory (AID 624330); format: functional
# T6 sequence (Q9H0H5 whole entry): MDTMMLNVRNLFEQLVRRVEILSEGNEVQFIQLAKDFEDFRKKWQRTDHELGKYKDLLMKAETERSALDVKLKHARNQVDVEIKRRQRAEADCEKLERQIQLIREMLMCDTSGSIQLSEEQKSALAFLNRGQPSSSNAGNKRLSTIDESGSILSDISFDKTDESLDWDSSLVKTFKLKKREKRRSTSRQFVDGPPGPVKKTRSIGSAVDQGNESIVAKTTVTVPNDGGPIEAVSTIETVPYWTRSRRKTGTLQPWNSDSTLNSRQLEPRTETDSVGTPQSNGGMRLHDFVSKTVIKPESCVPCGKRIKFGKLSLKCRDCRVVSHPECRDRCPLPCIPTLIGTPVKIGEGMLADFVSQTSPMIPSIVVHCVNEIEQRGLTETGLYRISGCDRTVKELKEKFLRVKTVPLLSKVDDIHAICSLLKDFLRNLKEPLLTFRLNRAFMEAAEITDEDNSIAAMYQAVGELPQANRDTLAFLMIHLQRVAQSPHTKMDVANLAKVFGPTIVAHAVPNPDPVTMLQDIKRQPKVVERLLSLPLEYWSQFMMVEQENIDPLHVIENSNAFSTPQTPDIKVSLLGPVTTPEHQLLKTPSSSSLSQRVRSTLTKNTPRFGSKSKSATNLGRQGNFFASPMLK
smiles,measurement,setting,value
CC(C)NC(=O)NC(=O)COC(=O)Cc1c(F)cccc1Cl,IC50,Galanin receptor type 3,> 29.9 µM (inactive)
same,EC50,cells [1],> 29.9 µM (inactive)
O=C(c1cc(COc2ccc(F)cc2Cl)on1)N1C[C@H]2C[C@H]3C[C@@H](C2)C[C@H]1C3,EC50,H4,47.6 µM (active)
same,IC50,[2],> 67.5 µM (inactive)
same,EC50,[3],26.2 µM (active)
same,IC50,Protein skinhead-1,> 100 µM (inactive)
same,EC50,[4],917 nM (active)
same,IC50,cells [5],> 67.5 µM (inactive)
Nc1ccc(-c2nc3c(ccc4ccccc43)[nH]2)cc1,AC50,[6],92.4 µM (active)
CN1C(=O)c2cc(NC(=O)Cc3ccccc3)ccc2OC[C@@H]2O[C@@H](CC(=O)NCc3ccc(Cl)cc3)CC[C@H]21,AC50,[7],41.4 µM (active)
Nc1c(C(=O)NCCN2CCOCC2)c2nc3ccccc3nc2n1-c1ccc2c(c1)OCO2,AC50,[6],37.3 µM (active)
C=CCc1cccc(CNc2nc3ccccc3n2CCN2CCOCC2)c1O,IC50,Beta-galactosidase,> 80 µM (inactive)
Cc1cccc2sc(N)nc12,AC50,[8],56.2 µM (inconclusive)
O=C(/C=C/c1ccc(OCCCF)cc1)N1CCN(Cc2ccccc2)CC1,IC50,Beta-galactosidase,> 80 µM (inactive)
COc1ccc(C(=O)Nc2nnc(SCC(=O)NCc3ccco3)s2)c(OC)c1,AC50,[9],4.64 µM (active)
same,IC50,[2],> 67.5 µM (inactive)
same,AC50,[10],6.14 µM (active)
same,AC50,[11],> 52 µM (inactive)
same,AC50,[12],> 52 µM (inactive)
same,IC50,cells [5],> 67.5 µM (inactive)
Cc1csc2ncnc(NCCc3ccccn3)c12,IC50,Protein Wnt-3a,887 nM (active)
same,EC50,[13],> 160 µM (inactive)
same,AC50,INS1,4.39 µM (active)
same,EC50,[14],1.92 µM (active)
Cc1ccc(N=C=O)cc1N=C=O [TOLUENE DIISOCYANATE],AC50,[8],50.1 µM (inconclusive)
Nc1cc(Cl)c(N)c(Cl)c1,AC50,Cytochrome P450 3A4,20 µM (inconclusive)
same,AC50,[8],31.6 µM (inconclusive) and 25.1 µM (inconclusive)
C/C(=N\Nc1ccc(S(=O)(=O)N2CCCCC2)cn1)c1ccc(O)cc1,CC50,[15],100 µM (active)
same,IC50,[16],23.4 µM (active)
COc1ccc(-c2cc(NC=O)c3ncc(-c4cc(OC)c(OC)c(OC)c4)n3c2)cc1,IC50,[2],> 67.6 µM (inactive)
same,IC50,cells [5],> 67.6 µM (inactive)
